Measurements reported in patent US20240180872A1, “METHODS AND COMPOUNDS OF CANNABIDIOL, MELATONIN AND AKBA FOR TREATING PANCREATIC CANCER” (priority 2021, published 2024).

Tests used:
[1] = test system: pancreatic adenocarcinoma associated genes; test: TaqMan Array gene expression in MIAPaCa-2, normalized for GAPDH; assay type: cell-based, Human; details: Mia-PACA-2, 24 hs, CBD 3.8, MLT 200, AKBA 7.5 micrograms/ml
Protocol: Total RNA from untreated or CBD, MLT, AKBA alone and in combination treated cell lines was extracted using Rneasy Mini kit (Qiagen, Milan, Italy). One microgram of total RNA from each sample was subjected to reverse transcription in a total volume of 20 μL using the High-Capacity cDNA Archive Kit (Applied Biosystem, Foster City, […], USA) according to the instructions. cDNAs were analyzed by qRT-PCR performed using an IQ5 Multicolor Real time PCR Detection system. Quantitative real-time gene expression was performed with the TaqMan® Array Human Pancreatic Adenocarcinoma 96-well Plate, containing 92 assays to pancreatic adenocarcinoma associated genes and 4 assays to candidate endogenous control genes, was purchased (Thermo Fisher, Grand Island, NY, USA) and used to evaluate the treatments in modulating PDAC-related genes (Table 1). Measurement of different housekeeping genes (GAPDH; HPRT1; GUSB) on the samples was used to normalize mRNA content. The gene expression levels of treated cell lines were expressed as relative fold compared with untreated or vehicle-treated cells.
To elucidate the molecular events induced by CBD, MLT and AKBA alone and in combination, 92 genes involved in PDAC progression and aggressiveness were evaluated by Taqman Array. Both cell lines were treated with CBD, MLT and AKBA alone and in combination, and the molecular pathways of PDAC associated gene were evaluated.
Target mRNA levels were normalized for GAPDH expression.

[2] = cited from earlier work
MIAPaCa-2 cell line = test: Cytotoxicity assay (MTT, 72 hours, daily administration) in MIAPaCa-2; details: Homo sapiens, MIA PaCa-2, read-out: % VIABILITY ± S.D.
Protocol: Human pancreatic ductal adenocarcinoma (PANC-1 and MIAPaCa-2) cell lines were purchased by Sigma Aldrich (Milan, Italy) and cultured in DMEM high glucose medium (EuroClone, Milan, Italy) supplemented with 10% of fetal bovine serum (FBS), 2 mM L-glutamine, 100 IU/mL penicillin, 100 mg streptomycin and 1 mM sodium pyruvate. Cell lines were maintained at 37° C. with 5% CO2 and 95% of humidity.
3×10^4 cells/mL were seeded in 96-well plates in a final volume of 100 L/well. After one day of incubation, compounds or vehicles, alone or in combination, were added and six replicates were used for each treatment and all experiments were repeated three times. In all the experiments, the treatment was daily added, after washing with fresh medium. After 72 hours cell viability was investigated by adding 0.8 mg/mL of 3-[4,5-dimethylthiazol-2-yl]-2,5 diphenyl tetrazolium bromide (MTT) (Sigma Aldrich) to the media. After 3 h the supernatant was removed, and the pellet of salt crystals was solubilized with 100 μL/well of DMSO. The absorbance of the sample against a background control was measured at 570 nm using an ELISA reader microliter plate (BioTek Instruments, Winooski, VT, USA).
Cytotoxicity in PDAC cell lines: The effect of CBD, MLT and AKBA in reducing cell viability was evaluated at 72 hours, post daily administration, in PDAC cell lines. Cells were treated with different doses of CBD, MLT and AKBA (up to 1 mg) and percentage of cell viability was evaluated by the MTT assay. […] The compounds were administered daily for 72 hours, as in previous experiments at the desired doses. […] MTT assay was used to analyse the cell cytotoxicity.

[3] = normalized for GAPDH, Akt pathways
[4] = normalized for GAPDH, Akt-pathways
[5] = normalized for GAPDH, DNA repair
[6] = normalized for GAPDH, NfkB pathways
[7] = normalized for GAPDH, Ras pathways
[8] = normalized for GAPDH, TGF patways
[9] = normalized for GAPDH, TGF-patways
[10] = normalized for GAPDH, angiogenesis
[11] = normalized for GAPDH, apoptosis
[12] = normalized for GAPDH, cell cycle
[13] = normalized for GAPDH, inflammation
[14] = normalized for GAPDH, proliferation

Q: For `CC(=O)O[C@@H]1CC[C@@]2(C)[C@@H](CC[C@]3(C)[C@@H]2C(=O)C=C2[C@@H]4[C@@H](C)[C@H](C)CC[C@]4(C)CC[C@]23C)[C@@]1(C)C(=O)O` [AKBA, (3R,4R,4aR,6aR,6bS,8aR,11R,12S,12aR,14aR,14bS)-3-acetyloxy-4,6a,6b,8a,11,12,14b-heptamethyl-14-oxo-1,2,3,4a,5,6,7,8,9,10,11,12,12a, 14a-tetradecahydropicene-4-carboxylic acid], which GAPDH relative expression ([1]; GAPDH is the normalizer) is on record?
A: 1.00

Q: What about the PK3CB relative expression [1, 3] of the same molecule?
A: 0.19

Q: And the PK3CD relative expression [1, 3]?
A: 0.06

Q: What about the AKT1 relative expression [1, 4] of the same molecule?
A: 0.18

Q: What about the AKT2 relative expression [1, 4] of the same molecule?
A: 0.49

Q: What about the AKT3 relative expression [1, 4] of the same molecule?
A: 0.00

Q: And the IGF1 relative expression [1, 4]?
A: 0.00

Q: What about the PK3CA relative expression [1, 4] of the same molecule?
A: 0.02

Q: And the PK3R1 relative expression [1, 4]?
A: 0.04

Q: What about the BRCA2 relative expression [1, 5] of the same molecule?
A: 0.12

Q: And the MDM2 relative expression [1, 5]?
A: 0.05

Q: And the TP53 relative expression [1, 5]?
A: 0.35

Q: And the HSP90AA1 relative expression ([1]; normalized for GAPDH, Heat sock protein)?
A: 0.26

Q: What about the NFKB1 relative expression [1, 6] of the same molecule?
A: 0.12

Q: What about the NFKB2 relative expression [1, 6] of the same molecule?
A: 0.12

Q: What about the REL relative expression [1, 6] of the same molecule?
A: 0.09

Q: What about the RELA relative expression [1, 6] of the same molecule?
A: 0.11

Q: What about the RELB relative expression [1, 6] of the same molecule?
A: 0.13

Q: And the RHOA relative expression [1, 6]?
A: 0.33

Q: And the RHOB relative expression [1, 6]?
A: 0.06

Q: And the BRAF relative expression [1, 7]?
A: 0.22

Q: What about the E2F1 relative expression [1, 7] of the same molecule?
A: 0.17

Q: And the E2F3 relative expression [1, 7]?
A: 0.08

Q: What about the E2F4 relative expression [1, 7] of the same molecule?
A: 0.22

Q: And the EGF relative expression [1, 7]?
A: 0.00

Q: And the EGFR relative expression [1, 7]?
A: 0.22

Q: And the ELK1 relative expression [1, 7]?
A: 0.13

Q: What about the ERBB2 relative expression [1, 7] of the same molecule?
A: 0.08

Q: And the GRB2 relative expression [1, 7]?
A: 0.46

Q: What about the HBEGF relative expression [1, 7] of the same molecule?
A: 0.53

Q: What about the KRAS relative expression [1, 7] of the same molecule?
A: 0.11

Q: What about the MAP2K1 relative expression [1, 7] of the same molecule?
A: 0.12

Q: And the MAP2K2 relative expression [1, 7]?
A: 0.12

Q: What about the MAPK1 relative expression [1, 7] of the same molecule?
A: 0.72

Q: And the MAPK3 relative expression [1, 7]?
A: 0.00

Q: And the RAF1 relative expression [1, 7]?
A: 0.10

Q: What about the RB1 relative expression [1, 7] of the same molecule?
A: 0.17

Q: What about the SOS1 relative expression [1, 7] of the same molecule?
A: 0.11

Q: And the TGFB2 relative expression [1, 8]?
A: 0.10

Q: What about the TGFB3 relative expression [1, 8] of the same molecule?
A: 0.05

Q: What about the TGFBR1 relative expression [1, 8] of the same molecule?
A: 0.06

Q: What about the SMAD2 relative expression [1, 9] of the same molecule?
A: 0.04

Q: And the SMAD3 relative expression [1, 9]?
A: 0.22

Q: What about the SMAD4 relative expression [1, 9] of the same molecule?
A: 0.10

Q: And the TGFA relative expression [1, 9]?
A: 0.02

Q: What about the TGFB1 relative expression [1, 9] of the same molecule?
A: 0.13

Q: What about the TGFBR2 relative expression [1, 9] of the same molecule?
A: 0.09

Q: And the FIGF relative expression [1, 10]?
A: 0.00

Q: What about the VEGFA relative expression [1, 10] of the same molecule?
A: 0.41

Q: And the VEGFB relative expression [1, 10]?
A: 0.16

Q: What about the VEGFC relative expression [1, 10] of the same molecule?
A: 0.11

Q: And the BCL2L1 relative expression [1, 11]?
A: 0.28

Q: And the BCL2 relative expression [1, 11]?
A: 0.00

Q: What about the BIRC5 relative expression [1, 11] of the same molecule?
A: 0.26

Q: What about the CCNA2 relative expression [1, 12] of the same molecule?
A: 0.12

Q: What about the CCNB1 relative expression [1, 12] of the same molecule?
A: 0.24

Q: What about the CCND1 relative expression [1, 12] of the same molecule?
A: 0.12

Q: And the CCND2 relative expression [1, 12]?
A: 0.00

Q: What about the CCNE1 relative expression [1, 12] of the same molecule?
A: 0.12

Q: And the CCNE2 relative expression [1, 12]?
A: 0.10

Q: What about the CDC42 relative expression [1, 12] of the same molecule?
A: 0.02

Q: What about the CDK2 relative expression [1, 12] of the same molecule?
A: 0.12

Q: What about the CDK4 relative expression [1, 12] of the same molecule?
A: 0.30

Q: And the CDKN1A relative expression [1, 12]?
A: 0.34

Q: What about the CDKN1B relative expression [1, 12] of the same molecule?
A: 0.12

Q: And the CDKN2A relative expression [1, 12]?
A: 0.14

Q: And the CDKN2B relative expression [1, 12]?
A: 0.24

Q: And the CDKN2C relative expression [1, 12]?
A: 0.14

Q: And the CDKN2D relative expression [1, 12]?
A: 0.06

Q: And the IL6 relative expression [1, 13]?
A: 0.00

Q: What about the JAK1 relative expression [1, 13] of the same molecule?
A: 1.32

Q: And the JAK2 relative expression [1, 13]?
A: 0.05

Q: And the JAK3 relative expression [1, 13]?
A: 0.04

Q: And the STAT1 relative expression [1, 13]?
A: 0.34

Q: And the STAT2 relative expression [1, 13]?
A: 0.12

Q: And the STAT3 relative expression [1, 13]?
A: 0.20

Q: What about the STAT6 relative expression [1, 13] of the same molecule?
A: 0.12

Q: What about the STATSB relative expression [1, 13] of the same molecule?
A: 0.22

Q: What about the MMP1 relative expression ([1]; normalized for GAPDH, invasion) of the same molecule?
A: 0.02

Q: And the MMP2 relative expression ([1]; normalized for GAPDH, invasion)?
A: 0.24

Q: And the MMP3 relative expression ([1]; normalized for GAPDH, invasion)?
A: 0.00

Q: What about the MMP7 relative expression ([1]; normalized for GAPDH, invasion) of the same molecule?
A: 0.04

Q: What about the MMP9 relative expression ([1]; normalized for GAPDH, invasion) of the same molecule?
A: 0.04

Q: What about the PTGS2 relative expression ([1]; normalized for GAPDH, invasion) of the same molecule?
A: 0.10

Q: And the RAC1 relative expression ([1]; normalized for GAPDH, invasion)?
A: 0.12

Q: What about the RAC2 relative expression ([1]; normalized for GAPDH, invasion) of the same molecule?
A: 0.01

Q: What about the KIT relative expression [1, 14] of the same molecule?
A: 0.00

Q: What about the NOTCH1 relative expression [1, 14] of the same molecule?
A: 0.06

Q: And the SRC relative expression [1, 14]?
A: 0.15

Q: And the solubility ([2]; 1:2 solution of DMSO:PBS (pH 7.2))?
A: approximately 0.3 mg/ml

Q: And the “solubility in aqueous buffers” value ([2]; aqueous buffers)?
A: sparingly soluble

Q: And the viability at 5 µg/mL (MIAPaCa-2 cell line)?
A: 110 ± 7.3%

Q: And the viability at 7.5 µg/mL (MIAPaCa-2 cell line)?
A: 74.8 ± 6.2%

Q: What about the viability at 10 µg/mL (MIAPaCa-2 cell line) of the same molecule?
A: 55.3 ± 4.8%

Q: What about the viability at 15 µg/mL (MIAPaCa-2 cell line) of the same molecule?
A: 12.1 ± 0.9%
